Reference: patent US20230181512A1, “METHODS FOR THE TREATMENT OF INFANTILE SPASMS USING MEDIUM CHAIN TRIGLYCERIDES” (Cerecin Inc., priority 2020, published 2023)
“Also recorded” adds a separate entry of the source. Read-outs that look alike come from different tables or passages of the source.

How the values were obtained:
[1] = tested on: Infantile spasms (IS) patients; conditions: cited from earlier work
[2] = cited from earlier work; for adverse events (AEs) associated with treatment: IS treatment, refs [32], [1]
[3] = tested on: rat triple hit model of IS; experiment: Rat triple hit model of IS (DOX, LPS, PCPA): spasm frequency; type: in vivo, Sprague Dawley rats; conditions: for spasms/hr / spasms/hour: P5-P7, scored on P7; for spasms/hour: vehicle/milk only mean 4.5 (SD 2.3)
Description: Various animal models of IS have been created as tools to test efficacy of various interventions. One such example is a rat triple hit model developed by Scantlebury and co-authors. This model was developed “based on evidence that structural or functional abnormalities in cortical or subcortical structures may be necessary to produce IS.” [11]. The model uses three lesions to induce infantile spasms. The lesions include doxorubicin (DOX), lipopolysaccharide (LPS) and p-chlorophenylalanine (PCPA). DOX is an inhibitor of topo isomerase 2 that results in diffuse brain damage involving the forebrain and brainstem when injected intraventricularly. LPS can stimulate the release of inflammatory cytokines in various cell types, leading to an acute inflammatory response. Intracerebral injection of LPS in rat pups activates inflammatory cascades resulting in hypomyelination, white matter rarefaction and necrosis. PCPA depletes serotonin by inhibiting the enzyme tryptophan hydroxylase.
In accordance with embodiments of the disclosure, tricaprilin was tested for its ability to reduce spasm frequency in this triple hit model. These studies were done using timed pregnant Sprague Dawley rats. Animals were maintained in a 12 hr light/dark cycle and had free access to food and water. The day of birth was considered as P0. Animal care and use conformed to institutional policy and guidelines of the American Association for the Accreditation of Laboratory Animal Care. All procedures and experiments were performed in accordance with the National Institute of Health Guide for the Care and Use of Laboratory Animals.
At postnatal day (P) 3 DOX (5 μg/2.5 μl) and LPS (3 μg/1.5 μl) were given intracerebrally and at P5 PCPA is given intraperitoneally (i.p.) (200 mg/kg). Intracerebral infusions of DOX and LPS were done stereotaxically under isoflurane anesthesia. Pups were positioned in a stereotaxic frame for neonatal rat surgery (Benchmark Angle One, MyNeurolab.com, St Louis Mo.). DOX was injected into the right lateral ventricle followed by LPS into the right parietal cortex. Pups were individually placed in beakers warmed in a water bath and filled with bedding (31-33° C.) and fed via a cheek cannula. Spasms begin at day P4 and continue to P13.
Tricaprilin was administered either by oral gavage (administered twice a day), or steadily in milk via the cheek cannula, from P5-P7. […] For gavage, tricaprilin was administered at 5 ml/kg/day and 10 ml/kg/day. When mixed with milk, tricaprilin was administered at 5, 10 and 30 ml/kg/day. Each group comprised 5 animals. Spasms were recorded and scored on P7, urine ketones collected on P7 at 6 and 12 hours after gavage and same timepoints for milk fed pups. The behaviors of the pups were monitored using a video camera for 2 hours twice daily from P4 (first post-operative day) until P20.
The frequency of spasms varied by concentration of tricaprilin used. […] With reference to FIG. 2B, when tricaprilin was mixed with milk at 5 ml/kg/day spasms/hr were 3.1 (SD 1.7, pvalue=0.300), at 10 ml/kg/day 3.0 (SD 0.8, pvalue=0.139), and at 30 ml/kg/day 1.75 (SD 1.7, pvalue 0.079).

C[C@]12C=CC(=O)C=C1CC[C@@H]1[C@@H]2[C@@H](O)C[C@@]2(C)[C@H]1CC[C@]2(O)C(=O)CO [Prednisolone]
% of patient spasms stopped ([1]; 40-60 mg/day, N 30, ref [17]): 70%

C=CC(N)CCC(=O)O (stereo not drawn) [VGB, Vigabatrin]
% of patient spasms stopped ([1]; 18-36 mg/kg/day, N 75, ref [18]): 11% | % of patient spasms stopped ([1]; 100-148 mg/kg/day, N 67, ref [18]): 36% | % of patient spasms stopped ([1]; 100-150 mg/kg/day, N 52, ref [17]): 54% | adverse events (AEs) associated with treatment [2]: sedation, irritability, insomnia and hypotonia | visual field defects ([2]; persist even with discontinuation of the drug, ref [1]): serious visual field defects that are permanent

C[C@]12C=CC(=O)C=C1CC[C@@H]1[C@@H]2C(=O)C[C@@]2(C)[C@H]1CC[C@]2(O)C(=O)CO [Prednisone]
% of patient spasms stopped ([1]; 2 mg/kg/day, N 12, ref [19]): 33%

CCCCCCCC(=O)OCC(COC(=O)CCCCCCC)OC(=O)CCCCCCC [tricaprilin]
spasms/hr ([3]; mixed with milk 5 ml/kg/day, SD 1.7, pvalue=0.300): 3.1 spasms/hr | spasms/hr ([3]; mixed with milk 10 ml/kg/day, SD 0.8, pvalue=0.139): 3.0 spasms/hr | spasms/hr ([3]; mixed with milk 30 ml/kg/day, SD 1.7, pvalue 0.079): 1.75 spasms/hr | spasms/hour ([3]; oral gavage 5 ml/kg/day, SD 1.6, pvalue 0.155): 2.3 spasms/hour | spasms/hour ([3]; oral gavage 10 ml/kg, SD 0.9, pvalue=0.036): 1.4 spasms/hour | effect on spasms compared to vehicle (in words) ([3]; oral gavage and feeding in milk): reduction in spasms/hr; also recorded: reduces spasms

Adrenocorticotropic hormone (SYSMEHFRWGKPVGKKRRPVKVYPNGAEDESAEAFPLEF; Corticotropin; UniProt P01189 138-176, looked up) [ACTH, first line hormonal therapy for IS]
% of patient spasms stopped ([1]; 20-20 IU/day, N 24, ref [16]): 58% | % of patient spasms stopped ([1]; 150 IU/m2/day divided B.I.D., N 15, ref [13]): 93% | % of patient spasms stopped ([1]; 150 IU/m2/day, N 26, ref Hrachovy, 1994 #681}): 50% | subjects responded with both clinical cessation of spasms and abolition of hypsarrhythmia on EEG ([1]; high-dose natural ACTH 150 IU/m2/day given twice daily, 2 weeks then taper, Baram et al. [13]): 87% | adverse events (AEs) associated with treatment [2]: hypertension, immune suppression, infection, electrolyte imbalances, GI disturbances, ocular opacities, hypertrophic cardiomyopathy, cerebral atrophy and growth impairment
